{"source": "patent US6949356B1", "about": "“Methods for improving secondary metabolite production in fungi” (Microbia, Inc., priority 1999, dated 2005)", "test_system": "S. cerevisiae strain 22409", "assay": "Lovastatin resistance test: yeast transformants spotted to SC-URA agar containing different concentrations of lovastatin (FIG. 1)", "format": "cell-based, Saccharomyces cerevisiae", "experimental": "These genes are predicted to encode proteins, denoted by Genbank accession numbers AAD34558 (hereafter referred to as PUMP1) and AAD34564 (hereby referred to as PUMP2), that are members of the MFS class of transporters. As described above, some MFS transporters are known to confer resistance to toxic compounds. PUMP1 and PUMP2 were tested for their ability to confer resistance to otherwise toxic levels of lovastatin when expressed in the fungus S. cerevisiae.\nThe polyA+ fraction of the A. terreus total RNA was isolated using Oligotex beads (Qiagen Inc.). Purified polyA+ RNA (5 μg) was used to generate complementary DNA (cDNA) using Superscript Reverse Transcriptase (Gibco BRL, 9800 Medical Center Drive, PO Box 6482, Rockville, Md. 20849) according to the instructions of the manufacturer. The cDNA was then used to isolate and clone PUMP1 and PUMP2 gene sequences using the polymerase chain reaction (PCR) and Gateway (Life Technologies) Cloning Technology (U.S. Pat. No. 5,888,732). Oligonucleotide sequences used for PCR were 5′-[…]-3′ (SEQ ID NO: 7) and 5′-[…]-3′ (SEQ ID NO: 8) for PUMP1. Oligonucleotide sequences used for PUMP2 PCR were 5′-[…]-3′ (SEQ ID NO: 9) and 5′-[…]-3′ (SEQ ID NO: 10). The resultant plasmids, MB1333 and MB1334, were designed to express PUMP1 and PUMP2, respectively, under control of the S. cerevisiae TEF1 promoter. The plasmids carry a functional URA3 gene to allow for selection of the plasmid on media lacking uracil in a ura3 mutant strain. These plasmids also contained a 2-micron origin for high-copy replication in yeast. […] Environ. Microbiol. 63: 33414 (1997) as pRH127-3, that expresses a soluble form of HMG CoA reductase under control of the yeast GPD1 promoter and is known to confer resistance to increased levels of lovastatin (Donald et al., Appl. Environ. Microbiol. 63: 3341-4 (1997)).\nMB1333, MB1334, MB969 and MB1344 were transformed into the yeast strain 22409 (Research Genetics, USA) using standard transformation methods for S. cerevisiae (Biotechniques, 1992, 13(1): 18). Strain 22409 is derived from the S288c strain background of S. cerevisiae, and its complete genotype is as follows: MATa/α, his3Δ1/his3Δ1, leu2Δ1/leu2Δ0, ura3Δ0/ura3Δ0, LYS2/lys2Δ0, MET15/met15Δ0 pdr5::G418/PDR5. Transformants were grown overnight at 30° C. in synthetic complete media lacking uracil (SC-U) to maintain selection for the plasmid. Cultures were diluted 1:10 in sterile water, and 5 μl of each strain was spotted to SC-URA agar containing different concentrations of lovastatin as shown in FIG. 1."}
{"smiles": "CC[C@H](C)C(=O)O[C@H]1C[C@@H](C)C=C2C=C[C@H](C)[C@H](CC[C@@H]3C[C@@H](O)CC(=O)O3)[C@H]21", "note": "[lovastatin]", "values": [{"measurement": "growth inhibition by lovastatin", "setting": "positive control strain carrying MB1344 (soluble fragment of HMG CoA reductase overexpressed), highest concentration of lovastatin tested, 150 μg/ml", "result": "no obvious growth inhibition"}, {"measurement": "growth inhibition by lovastatin", "setting": "strain expressing PUMP2 (MB1334), lowest concentration of lovastatin tested, 50 μg/mL", "result": "growth inhibition"}, {"measurement": "growth inhibition by lovastatin", "setting": "strain harboring MB1333 (expressing PUMP1), highest concentration of lovastatin tested, 150 μg/ml", "result": "no obvious growth inhibition"}, {"measurement": "growth inhibition by lovastatin", "setting": "vector-only control strain (MB969), lowest concentration of lovastatin tested, 50 μg/mL", "result": "growth inhibition"}]}
